Laboratory results: patent publication US9499550B2 (BRISTOL-MYERS SQUIBB COMPANY, priority 2012, dated 2016)
Like-named read-outs stand apart in the source and are kept apart here.

How the values were obtained:
[1] = system: HCV genotype 1a (H77 strain) replicon in HUH-7 cells; test: HCV replicon luciferase reporter assay, genotype 1a; type: cell-based; details: HCV genotype 1a replicon luciferase, 3 days incubation, read-out: LE_1a (EC50, range)
Method in brief: (§1)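 Replicon inhibition for both genotypes was measured as Renilla luciferase signal (EnduRen, 7.5 μM final, 2 h) after 3-day, 37° C exposure of replicon-bearing HUH-7 cells in 4% FCS DMEM, 0.5% DMSO. The 1b construct carries S1179I; the 1a H77 construct carries P1496L and S2204I. Twenty-point, 3-fold dilutions were fitted four-parametrically for EC50, and CC50 was taken from multiplexed Cell Titer-Blue.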

[2] = system: HCV genotype 1b (Con1) replicon in HUH-7 cells; test: HCV replicon luciferase reporter assay, genotype 1b; type: cell-based; details: HCV genotype 1b replicon luciferase, 3 days incubation, read-out: LE_1b (EC50, range)
Method in brief: as §1

| SMILES | EC50 ([1]; Hepatitis C virus, Huh-7, 72 h) [nM] | EC50 ([2]; Hepatitis C virus, Huh-7, 72 h) [nM] | EC50 [1] [nM] | EC50 [2] [nM] |
| --- | --- | --- | --- | --- |
| CCOc1ccc2c(O[C@@H]3C[C@H]4C(=O)N[C@]5(C(=O)NS(=O)(=O)C6CC6)C[C@H]5/C=C\CC[C@@H](C)C[C@@H](CC)[C@H](NC(=O)OC(C)(C)C)C(=O)N4C3)nccc2c1 [Compound 5361, tert-butyl ((2R,6S,7R,9R,13aS,14aR,16aS,Z)-14a-((cyclopropylsulfonyl)carbamoyl)-2-((6-ethoxyisoquinolin-1-yl)oxy)-7-ethyl-9-methyl-5,16-dioxo-1,2,3,5,6,7,8,9,10,11,13a,14,14a,15,16,16a-hexadecahydrocyclopropa[e]pyrrolo[1,2-a][1,4]diazacyclopentadecin-6-yl)carbamate] | 0.51 to 1 | 0.51 to 1 | – | – |
| CCOc1ccc2c(O[C@@H]3C[C@H]4C(=O)N[C@]5(C(=O)NS(=O)(=O)C6(CF)CC6)C[C@H]5/C=C\CC[C@@H](C)C[C@@H](C)[C@H](NC(=O)OC(C)(C)C(F)(F)F)C(=O)N4C3)nccc2c1 [Compound 5363, 1,1,1-trifluoro-2-methylpropan-2-yl((2R,6S,7R,9R,13aS,14aR,16aS,Z)-2-((6-ethoxyisoquinolin-1-yl)oxy)-14a-(((1-(fluoromethyl)cyclopropyl)sulfonyl)carbamoyl)-7,9-dimethyl-5,16-dioxo-1,2,3,5,6,7,8,9,10,11,13a,14,14a,15,16,16a-hexadecahydrocyclopropa[e]pyrrolo[1,2-a][1,4]diazacyclopentadecin-6-yl)carbamate] | 1.01 to 5 | 0.51 to 1 | – | – |
| CCOc1ccc2c(O[C@@H]3C[C@H]4C(=O)N[C@]5(C(=O)NS(=O)(=O)C6(CF)CC6)C[C@H]5/C=C\CC[C@@H](C)C[C@@H](C)[C@H](NC(=O)OC(C)(C)C(C)(F)F)C(=O)N4C3)nccc2c1 [Compound 5365, 3,3-difluoro-2-methylbutan-2-yl((2R,6S,7R,9R,13aS,14aR,16aS,Z)-2-((6-ethoxyisoquinolin-1-yl)oxy)-14a-(((1-(fluoromethyl)cyclopropyl)sulfonyl)carbamoyl)-7,9-dimethyl-5,16-dioxo-1,2,3,5,6,7,8,9,10,11,13a,14,14a,15,16,16a-hexadecahydrocyclopropa[e]pyrrolo[1,2-a][1,4]diazacyclopentadecin-6-yl)carbamate] | 1.01 to 5 | 0.51 to 1 | – | – |
| CCOc1ccc2c(O[C@@H]3C[C@H]4C(=O)N[C@]5(C(=O)NS(=O)(=O)C6(CF)CC6)C[C@H]5/C=C\CC[C@@H](C)C[C@@H](C)[C@H](NC(=O)OC(C)(C)C)C(=O)N4C3)nccc2c1 [Compound 5367, tert-butyl ((2R,6S,7R,9R,13aS,14aR,16aS,Z)-2-((6-ethoxyisoquinolin-1-yl)oxy)-14a-(((1-(fluoromethyl)cyclopropyl)sulfonyl)carbamoyl)-7,9-dimethyl-5,16-dioxo-1,2,3,5,6,7,8,9,10,11,13a,14,14a,15,16,16a-hexadecahydrocyclopropa[e]pyrrolo[1,2-a][1,4]diazacyclopentadecin-6-yl)carbamate] | 0.51 to 1 | 0.1 to 0.5 | – | – |
| CCOc1ccc2c(O[C@@H]3C[C@H]4C(=O)N[C@]5(C(=O)NS(=O)(=O)C6(C)CC6)C[C@H]5/C=C\CC[C@@H](C)C[C@@H](CC)[C@H](NC(=O)OC(C)(C)C(F)(F)F)C(=O)N4C3)nccc2c1 [Compound 5369, 1,1,1-trifluoro-2-methylpropan-2-yl((2R,6S,7R,9R,13aS,14aR,16aS,Z)-2-((6-ethoxyisoquinolin-1-yl)oxy)-7-ethyl-9-methyl-14a-(((1-methylcyclopropyl)sulfonyl)carbamoyl)-5,16-dioxo-1,2,3,5,6,7,8,9,10,11,13a,14,14a,15,16,16a-hexadecahydrocyclopropa[e]pyrrolo[1,2-a][1,4]diazacyclopentadecin-6-yl)carbamate] | 1.01 to 5 | 1.01 to 5 | – | – |
| CCOc1ccc2c(O[C@@H]3C[C@H]4C(=O)N[C@]5(C(=O)NS(=O)(=O)C6(C)CC6)C[C@H]5/C=C\CC[C@@H](C)C[C@@H](CC)[C@H](NC(=O)OC(C)(C)C(C)(F)F)C(=O)N4C3)nccc2c1 [Compound 5371, 3,3-difluoro-2-methylbutan-2-yl((2R,6S,7R,9R,13aS,14aR,16aS,Z)-2-((6-ethoxyisoquinolin-1-yl)oxy)-7-ethyl-9-methyl-14a-(((1-methylcyclopropyl)sulfonyl)carbamoyl)-5,16-dioxo-1,2,3,5,6,7,8,9,10,11,13a,14,14a,15,16,16a-hexadecahydrocyclopropa[e]pyrrolo[1,2-a][1,4]diazacyclopentadecin-6-yl)carbamate] | 1.01 to 5 | 0.51 to 1 | – | – |
| CCOc1ccc2c(O[C@@H]3C[C@H]4C(=O)N[C@]5(C(=O)NS(=O)(=O)C6(C)CC6)C[C@H]5/C=C\CC[C@@H](C)C[C@@H](CC)[C@H](NC(=O)OC(C)(C)C)C(=O)N4C3)nccc2c1 [Compound 5373, tert-butyl ((2R,6S,7R,9R,13aS,14aR,16aS,Z)-2-((6-ethoxyisoquinolin-1-yl)oxy)-7-ethyl-9-methyl-14a-(((1-methylcyclopropyl)sulfonyl)carbamoyl)-5,16-dioxo-1,2,3,5,6,7,8,9,10,11,13a,14,14a,15,16,16a-hexadecahydrocyclopropa[e]pyrrolo[1,2-a][1,4]diazacyclopentadecin-6-yl)carbamate] | 1.01 to 5 | 0.51 to 1 | – | – |
| COc1cc2ccnc(O[C@@H]3C[C@H]4C(=O)N[C@]5(C(=O)NS(=O)(=O)C6(C)CC6)C[C@H]5/C=C\CC[C@@H](C)C[C@@H](C)[C@H](NC(=O)OC(C)(C)C(F)(F)F)C(=O)N4C3)c2cc1OC [Compound 5375, 1,1,1-trifluoro-2-methylpropan-2-yl((2R,6S,7R,9R,13aS,14aR,16aS,Z)-2-((6,7-dimethoxyisoquinolin-1-yl)oxy)-7,9-dimethyl-14a-(((1-methylcyclopropyl)sulfonyl)carbamoyl)-5,16-dioxo-1,2,3,5,6,7,8,9,10,11,13a,14,14a,15,16,16a-hexadecahydrocyclopropa[e]pyrrolo[1,2-a][1,4]diazacyclopentadecin-6-yl)carbamate] | 1.01 to 5 | 0.51 to 1 | – | – |
| COc1cc2ccnc(O[C@@H]3C[C@H]4C(=O)N[C@]5(C(=O)NS(=O)(=O)C6(C)CC6)C[C@H]5/C=C\CC[C@@H](C)C[C@@H](C)[C@H](NC(=O)OC(C)(C)C(C)(F)F)C(=O)N4C3)c2cc1OC [Compound 5377, 3,3-difluoro-2-methylbutan-2-yl((2R,6S,7R,9R,13aS,14aR,16aS,Z)-2-((6,7-dimethoxyisoquinolin-1-yl)oxy)-7,9-dimethyl-14a-(((1-methylcyclopropyl)sulfonyl)carbamoyl)-5,16-dioxo-1,2,3,5,6,7,8,9,10,11,13a,14,14a,15,16,16a-hexadecahydrocyclopropa[e]pyrrolo[1,2-a][1,4]diazacyclopentadecin-6-yl)carbamate] | 1.01 to 5 | 1.01 to 5 | – | – |
| COc1cc2ccnc(O[C@@H]3C[C@H]4C(=O)N[C@]5(C(=O)NS(=O)(=O)C6(C)CC6)C[C@H]5/C=C\CC[C@@H](C)C[C@@H](C)[C@H](NC(=O)OC(C)(C)C)C(=O)N4C3)c2cc1OC [Compound 5379, tert-butyl ((2R,6S,7R,9R,13aS,14aR,16aS,Z)-2-((6,7-dimethoxyisoquinolin-1-yl)oxy)-7,9-dimethyl-14a-(((1-methylcyclopropyl)sulfonyl)carbamoyl)-5,16-dioxo-1,2,3,5,6,7,8,9,10,11,13a,14,14a,15,16,16a-hexadecahydrocyclopropa[e]pyrrolo[1,2-a][1,4]diazacyclopentadecin-6-yl)carbamate] | 1.01 to 5 | 1.01 to 5 | – | – |
| COc1cc2ccnc(O[C@@H]3C[C@H]4C(=O)N[C@]5(C(=O)NS(=O)(=O)C6(CF)CC6)C[C@H]5/C=C\CC[C@@H](C)C[C@@H](C)[C@H](NC(=O)OC(C)(C)C(F)(F)F)C(=O)N4C3)c2cc1OC [Compound 5381, 1,1,1-trifluoro-2-methylpropan-2-yl((2R,6S,7R,9R,13aS,14aR,16aS,Z)-2-((6,7-dimethoxyisoquinolin-1-yl)oxy)-14a-(((1-(fluoromethyl)cyclopropyl)sulfonyl)carbamoyl)-7,9-dimethyl-5,16-dioxo-1,2,3,5,6,7,8,9,10,11,13a,14,14a,15,16,16a-hexadecahydrocyclopropa[e]pyrrolo[1,2-a][1,4]diazacyclopentadecin-6-yl)carbamate] | 1.01 to 5 | 1.01 to 5 | – | – |
| COc1cc2ccnc(O[C@@H]3C[C@H]4C(=O)N[C@]5(C(=O)NS(=O)(=O)C6(CF)CC6)C[C@H]5/C=C\CC[C@@H](C)C[C@@H](C)[C@H](NC(=O)OC(C)(C)C(F)(F)F)C(=O)N4C3)c2cc1OC [Compound 5383, 1,1,1-trifluoro-2-methylpropan-2-yl((2R,6S,7R,9R,13aS,14aR,16aS,Z)-2-((6,7-dimethoxyisoquinolin-1-yl)oxy)-14a-(((1-(fluoromethyl)cyclopropyl)sulfonyl)carbamoyl)-7,9-dimethyl-5,16-dioxo-1,2,3,5,6,7,8,9,10,11,13a,14,14a,15,16,16a-hexadecahydrocyclopropa[e]pyrrolo[1,2-a][1,4]diazacyclopentadecin-6-yl)carbamate] | – | – | 5.01 to 35 | 1.01 to 5 |
| COc1cc2ccnc(O[C@@H]3C[C@H]4C(=O)N[C@]5(C(=O)NS(=O)(=O)C6(CF)CC6)C[C@H]5/C=C\CC[C@@H](C)C[C@@H](C)[C@H](NC(=O)OC(C)(C)C)C(=O)N4C3)c2cc1OC [Compound 5385, tert-butyl ((2R,6S,7R,9R,13aS,14aR,16aS,Z)-2-((6,7-dimethoxyisoquinolin-1-yl)oxy)-14a-(((1-(fluoromethyl)cyclopropyl)sulfonyl)carbamoyl)-7,9-dimethyl-5,16-dioxo-1,2,3,5,6,7,8,9,10,11,13a,14,14a,15,16,16a-hexadecahydrocyclopropa[e]pyrrolo[1,2-a][1,4]diazacyclopentadecin-6-yl)carbamate] | 5.01 to 35 | 1.01 to 5 | – | – |
